This is an account of results in patent US20230108730A1, “BIENZYMATIC BIOSENSOR FOR THE DETECTION OF LACTULOSE IN BLOOD” (TRIVIUMVET DESIGNATED ACTIVITY COMPANY, priority 2020, published 2023).

One series concerns gastric ulcers. Particulars: foals; ulcers associated with intravenous high-dose NSAIDs; cited from earlier work.
A short description of series [1]: Plasma lactulose after oral lactulose solution in canine NSAID-induced gastric ulceration model (ion chromatography). The class given is in vivo, dog. Particulars: for concentration at 10 min / concentration at 20 min / concentration at 30 min / concentration at 60 min: dog, plasma, po; for concentration at 20 min: 20 min after 0.6-0.7 g/kg PO; for concentration at 30 min: 30 min after 0.6-0.7 g/kg PO; for concentration at 60 min: 60 min after 0.6-0.7 g/kg PO. As for the experimental part:
A model of canine gastric ulceration was developed using a combination of orally administered nonsteroidal anti-inflammatory drugs (NSAIDs) at doses appropriate to induce ulceration without concomitant renal or hepatic dysfunction. Healthy laboratory dogs (14.0 to 16.7 kg) were screened to exclude individuals with clinically silent disorders, including gastrointestinal disease. Under the GCP study protocol, each dog was administered 50 ml of a 20% w/v lactulose solution orally (0.6-0.7 g/kg lactulose PO) following a 24-h fast at baseline and following a period of ulcer induction. On each occasion, peripheral venous blood was drawn from each dog into 1.3-ml Sarstedt blood tubes containing lithium heparin as an anticoagulant at 10, 20, 30 and 60 minutes following bolus administration of the lactulose solution. The Sarstedt tube product number was 41.1393.005. Blood samples were centrifuged for 15 minutes at 3000 rpm, before decanting plasma into plain tubes; plasma was stored at −80° C. until analysis. Prior to lactulose administration, endoscopy was performed on each dog, and the presence and extent of gastric ulceration were assessed by a blinded specialist veterinary gastroenterologist. Following confirmation of the presence of ulceration, NSAID administration was discontinued and post ulcer induction lactulose administration and plasma collection were performed. Frozen plasma samples were transported under GMP conditions at −80° C. to an analytical facility. Following thawing, the samples were analysed for lactulose concentration using an ion chromatography method previously developed using blank plasma samples spiked with known concentrations of lactulose. [table] Sample preparation for Ion Chromatography analysis: 200 μL aliquots of liquid from each of the plasma samples were diluted to 1000 μL with acetonitrile. The samples were vortexed thoroughly, followed by centrifugation at 15000 rpm for 10 minutes. The supernatants were analysed directly by ion chromatography. Analysis was performed in duplicate. Calibration Curve: Calibration curves were prepared in the blank plasma sample. Briefly, plasma samples were spiked with varying concentrations of lactulose and were then diluted with acetonitrile to the required final concentration range. The samples were then processed as described above before analysis by ion chromatography. Samples were analysed in duplicate. Linearity was established for plasma lactulose concentrations in the range 5 to 250 μM.

Series [2] is described as follows: Electrochemical dual-enzyme (β-Gal/GalOx) biosensor quantification of lactulose in canine plasma sample by amperometry. It is filed as in vivo. Particulars: dog, oral, canine plasma sample CAN 84049 D6 t60, standard additions calibration, read-out: lactulose concentration in the original plasma sample. The text has this:
An electrochemical biosensor for the indirect detection of lactulose in buffer and plasma samples used an electrocatalytic surface as the working electrode which was modified with a dual enzyme system comprising β-galactosidase (β-Gal) and galactose oxidase (GalOx). The electrochemical biosensor comprised a 3-electrode system of a working electrode (the dual enzyme-modified Pt electrode), an Ag/AgCl reference electrode, and a Pt wire as auxiliary electrode.
The enzymes were immobilised on the surface of the working electrode using a cross-linker. A 2 mm diameter Pt disk was used as the electrocatalytic surface for the working electrode. […]
The three electrodes were immersed in 2 mL of PBS solution 0.1 M pH 7.3 at 35° C. to comprise the electrochemical cell and an oxidative potential of +600 mV was applied between the working and reference electrodes for quantification of lactulose in a canine plasma sample by amperometry, as illustrated in FIG. 5. […]
Following this 200 μL of canine plasma (CAN 84049 D6 t60) was added to the cell and the current response was monitored for a period of 400 s.
Three sequential additions of a volume of 1 mM Lactulose standard (V1=75 μL; V2=80 μL; V3=85 μL) were then added to the cell and the current response was monitored for 400 s after each addition. […]

Another series concerns the target H-2 receptors (Homo sapiens, UniProt P25021). Particulars: human subjects, administered intravenously; cited from earlier work.
Another series deals with gastric ulceration. The series is described as follows: Omeprazole treatment of study dogs with NSAID-induced gastric ulceration. The class given is in vivo, dog. Particulars: 0.5 to 1.0 mg/kg twice daily for 3 weeks.
Where [3] appears, read: ulceration Moderate to severe (n = 4).

Chain of H-2 receptors (P25021 whole entry): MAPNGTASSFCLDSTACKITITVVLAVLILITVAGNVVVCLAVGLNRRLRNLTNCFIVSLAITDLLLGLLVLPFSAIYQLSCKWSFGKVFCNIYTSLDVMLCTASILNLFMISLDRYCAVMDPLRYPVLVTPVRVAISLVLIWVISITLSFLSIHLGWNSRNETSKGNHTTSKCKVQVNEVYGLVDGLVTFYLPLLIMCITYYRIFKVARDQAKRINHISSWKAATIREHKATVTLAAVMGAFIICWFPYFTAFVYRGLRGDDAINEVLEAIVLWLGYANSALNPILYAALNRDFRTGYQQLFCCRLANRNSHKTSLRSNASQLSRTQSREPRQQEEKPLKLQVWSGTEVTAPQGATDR

In the case of sucralfate, the “effect on gastric ulcers” value with gastric ulcers is “protective effect”.

In the case of `OC[C@H]1O[C@@H](O[C@@H]2[C@@H](CO)OC(O)(CO)[C@H]2O)[C@H](O)[C@@H](O)[C@H]1O` (mixture of isomers) [Lactulose, lactulose], the concentration at 10 min was determined as 24.9 µM in series [1] (10 min after 0.6-0.7 g/kg PO (50 ml 20% w/v), endoscopic grade of gastric ulceration Absent (n = 8)); 44.6 µM in series [1] (10 min after 0.6-0.7 g/kg PO, ulceration Mild (n = 4)); 60.9 µM in series [1] (10 min after 0.6-0.7 g/kg PO, ulceration Moderate to severe (n = 4)). Moreover, the concentration at 20 min turned out to be 39.1 µM in series [1] (ulceration Absent (n = 8)), 68.7 µM in series [1] (ulceration Mild (n = 4)) and 94.3 µM in series [1] (setting [3]). The concentration at 30 min in series [1] (ulceration Absent (n = 8)) was determined as 46 µM; in series [1] (ulceration Mild (n = 4)), 88.2 µM; in series [1] (setting [3]), 144 µM. In addition, the concentration at 60 min in series [1] (ulceration Absent (n = 8)) was 61.1 µM; in series [1] (ulceration Mild (n = 4)) it was 110 µM; in series [1] (setting [3]), 184 µM; in series [2], 275 to 400 µM. In addition, the “rate and extent of systemic lactulose absorption” value in series [1] (following ulcer induction versus baseline, each dog) was “increased significantly”.

Consider `NC(N)=Nc1nc(CSCCC(N)=NS(N)(=O)=O)cs1` [famotidine], for which the “time to occurrence of tolerance” value on H-2 receptors is 12 to 72 h.

For the compound `COc1ccc2[nH]c([S+]([O-])Cc3ncc(C)c(OC)c3C)nc2c1` (centres unmarked) [omeprazole], the “time to resolution of laboratory evidence of gastric ulceration (anemia, inflammatory leucogram, hypoalbuminaemia)” value with gastric ulceration was at most 3 weeks.
